Experimental data from patent US20050171139A1, “Treating psychotic symptoms” (priority 2003, published 2005).

Test: PPI after repeated low-dose ropinirole
Assay type: in vivo
Settings: same low doses as quinpirole

## CCCN(CCC)CCc1cccc2c1CC(=O)N2 [ropinirole]
  effect on PPI over time: acts like quinpirole to attenuate PPI symptoms over time
